The values below come from article PMC8453481, “OFF-State-Specific Inhibition of the Proprotein Convertase Furin” (ACS Chemical Biology, 2021).

Where two headings read alike, the source gives them in different places.

One series deals with furin. To be noted: read-out: Ki furin (reported), cited from earlier work.
The conditions of series [1]: ref 29; cited from earlier work.
Another series has as its target T1, PC7 (Homo sapiens, UniProt Q16549).
T1 construct: PC7 (Pro44-Thr667, UNP[41] Q16549); made in house
T1 sequence (Q16549 142-667 limits assumed): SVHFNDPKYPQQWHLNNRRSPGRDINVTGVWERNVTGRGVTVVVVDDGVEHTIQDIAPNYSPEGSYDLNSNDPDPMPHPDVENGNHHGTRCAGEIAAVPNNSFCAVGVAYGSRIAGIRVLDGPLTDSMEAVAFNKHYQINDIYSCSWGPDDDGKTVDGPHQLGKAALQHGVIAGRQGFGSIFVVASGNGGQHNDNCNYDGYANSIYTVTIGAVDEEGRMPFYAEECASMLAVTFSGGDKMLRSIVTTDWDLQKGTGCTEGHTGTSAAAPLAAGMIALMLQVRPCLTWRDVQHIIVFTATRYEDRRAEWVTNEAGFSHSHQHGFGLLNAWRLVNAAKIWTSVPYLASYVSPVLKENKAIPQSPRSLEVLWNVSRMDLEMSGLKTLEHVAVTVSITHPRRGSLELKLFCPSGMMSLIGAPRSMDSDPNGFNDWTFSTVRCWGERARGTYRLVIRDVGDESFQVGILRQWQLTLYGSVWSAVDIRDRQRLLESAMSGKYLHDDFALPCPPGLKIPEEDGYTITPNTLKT
The series is described as follows: Enzyme kinetics with fluorogenic substrate pyr-ERTKR-AMC, PC7. Format: biochemical. To be noted: for potency loss / increase of the Ki for PC7 compared with furin: Ki PC7 versus Ki furin; for Ki: competitive inhibition model, constant inhibitor concentration, substrate dilution series, triplicate. The protocol: (§1) HEK293S cells were stably transfected with the coding sequences of human furin,[20] PC5/6 (Arg33-Gly634, UNP[41] Q92824) and PC7 (Pro44-Thr667, UNP[41] Q16549) cloned into the pCDNA3.1(+) vector (ThermoFisher). Cells were grown in DMEM (4.5 g L^–1 glucose, 2 mM L-glutamine, 110 mg l^–1 sodium pyruvate, 3.7 g L^–1 NaHCO3, nonessential amino acids) supplemented with 10% (v/v) FBS. Polyclonal selection of stable cell lines was conducted in the presence of 500 μg mL^–1 G418 (Geneticin). The cells were grown in multilayer flasks (HyperFlask M, Corning) without G418 for large-scale protein expression. The medium of confluent expression cultures was exchanged with DMEM supplemented with 2 mM sodium butyrate as well as with FBS (2% (v/v), furin) or without FBS (PC5/6 and PC7). The medium exchange was repeated five (furin) or two (PC5/6 and PC7) times, and the centrifuged medium (20 min, 5500 g, 4 °C) was stored at −80 °C until further use.
The purification of human furin from a conditioned medium has been shown previously.[20] PC5/6 and PC7 were purified by immobilized metal affinity chromatography and gel permeation chromatography (GPC), as shown for furin but excluding the inhibitor affinity purification step.[20] PC7 (50 μg mL^–1) was fully activated in 50 mM Tris/HCl, at pH 7.5, 10 mM CaCl2, and 0.15 M NaCl, at pH 7.5, in the presence of 2.0 μg mL^–1 thermolysin for 16 h at 37 °C. To remove thermolysin, the reaction mixture was concentrated in an ultrafiltration device (30 kDa cutoff, amicon, Millipore) and subjected to GPC (both steps at 4 °C). Purified PC5/6 and PC7 were stored at −20 °C.
Enzyme kinetic measurements were performed in 100 mM HEPES/NaOH, at pH 7.0, 2 mM CaCl2, and 0.2% (v/v) Triton X 100 with the fluorogenic substrate pyr-ERTKR-7-amino-4-methylcoumarin (Bachem) at 37 °C. The 100 μL reactions were prepared in 96-well black half-area plates (Corning), preincubated for 15 min at 37 °C and measured in a 96-well plate reader (Tecan infinite 200) at excitation and emission wavelengths of 380 and 460 nm. Because of the autofluorescence of inhibitor 1, the Ki values were determined at constant inhibitor concentrations (1: 20 μM for furin, 15 μM for PC5/6 and 50 μM for PC7; 2: 10 μM for furin, 5 μM for PC5/6 and 15 μM for PC7) and 1:2 dilution series of the substrate (Figure S7). The KM values were determined with 1:2 dilution series of the substrate in the absence of an inhibitor (4.7 ± 0.4 μM for furin, 2.5 ± 0.2 μM for PC5/6, and 19.3 ± 0.8 μM for PC7; Figure S7). Enzyme kinetic data were evaluated with GRAPHPAD PRISM (GraphPad Software) using the prebuild “Michaelis–Menten” model to calculate KM and a competitive inhibition model (v = Vmax × S/[S + KM(1 + I/Ki)]; v = reaction velocity, Vmax = maximum velocity, S = substrate concentration, KM = Michaelis–Menten constant, Ki = inhibition constant) for Ki determination. All measurements were performed in triplicate.

Series [2] addresses T2, human furin (Homo sapiens, UniProt P09958).
T2 construct: made in house; host or cells: HEK293S cells, stably transfected (pCDNA3.1(+)), purified from conditioned medium
The series is described as follows: Enzyme kinetics with fluorogenic substrate pyr-ERTKR-AMC, furin. Format: biochemical. To be noted: pH 7.0, 37 °C; for Ki: competitive inhibition model, constant inhibitor concentration, substrate dilution series, triplicate. The protocol: as §1
(§2) The purification of human furin from a conditioned medium has been shown previously.[20] […]
(§3) Enzyme kinetic measurements were performed in 100 mM HEPES/NaOH, at pH 7.0, 2 mM CaCl2, and 0.2% (v/v) Triton X 100 with the fluorogenic substrate pyr-ERTKR-7-amino-4-methylcoumarin (Bachem) at 37 °C. The 100 μL reactions were prepared in 96-well black half-area plates (Corning), preincubated for 15 min at 37 °C and measured in a 96-well plate reader (Tecan infinite 200) at excitation and emission wavelengths of 380 and 460 nm. […] The KM values were determined with 1:2 dilution series of the substrate in the absence of an inhibitor (4.7 ± 0.4 μM for furin, 2.5 ± 0.2 μM for PC5/6, and 19.3 ± 0.8 μM for PC7; Figure S7). Enzyme kinetic data were evaluated with GRAPHPAD PRISM (GraphPad Software) using the prebuild “Michaelis–Menten” model to calculate KM and a competitive inhibition model (v = Vmax × S/[S + KM(1 + I/Ki)]; v = reaction velocity, Vmax = maximum velocity, S = substrate concentration, KM = Michaelis–Menten constant, Ki = inhibition constant) for Ki determination. […]

Another series addresses T3, PC5/6 (Homo sapiens, UniProt Q92824).
T3 construct: PC5/6 (Arg33-Gly634, UNP[41] Q92824); made in house; host or cells: HEK293S cells, stably transfected (pCDNA3.1(+)), purified from conditioned medium
T3 sequence (Q92824 33-634): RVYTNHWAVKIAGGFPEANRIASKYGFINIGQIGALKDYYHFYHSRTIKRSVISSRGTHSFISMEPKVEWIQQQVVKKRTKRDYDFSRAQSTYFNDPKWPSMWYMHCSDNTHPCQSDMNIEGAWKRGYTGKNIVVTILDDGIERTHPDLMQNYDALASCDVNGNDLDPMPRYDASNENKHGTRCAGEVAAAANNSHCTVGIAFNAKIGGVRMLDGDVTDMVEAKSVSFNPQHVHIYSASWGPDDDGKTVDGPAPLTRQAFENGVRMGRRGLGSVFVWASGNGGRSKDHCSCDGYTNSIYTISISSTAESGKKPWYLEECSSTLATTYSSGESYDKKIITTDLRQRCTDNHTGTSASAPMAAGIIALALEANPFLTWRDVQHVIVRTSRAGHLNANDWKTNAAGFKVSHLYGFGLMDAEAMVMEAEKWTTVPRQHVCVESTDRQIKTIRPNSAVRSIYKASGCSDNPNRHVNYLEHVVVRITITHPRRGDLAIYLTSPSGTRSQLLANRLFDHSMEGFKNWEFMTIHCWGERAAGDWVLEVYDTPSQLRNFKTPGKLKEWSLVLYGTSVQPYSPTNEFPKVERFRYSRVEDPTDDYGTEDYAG
The series is described as follows: Enzyme kinetics with fluorogenic substrate pyr-ERTKR-AMC, PC5/6. Format: biochemical. The conditions noted are these: pH 7.0, 37 °C; for Ki: competitive inhibition model, constant inhibitor concentration, substrate dilution series, triplicate. The protocol:
as §1, §2, §3

In series [3] the target is T2, human furin. The series is described as follows: Crystallography-based inhibitor titration of furin crystals (occupancy refinement). Format: binding. The protocol: Because of the lower number of specific interactions, we assumed that the binding affinity of 2 for the S4 pocket is lower as compared to the S1 pocket. […] The strength of the electron density directly correlates to the occupation of the binding sites with the inhibitor. Indeed, we found the S1 pocket already occupied by 2 at 0.4 mM as indicated by the occupancy of 75% from crystallographic refinement (Table S2). […] The refined occupancy of inhibitor 2 at the S1 pocket at 40 mM concentration was 0.94. It should be noted that water molecules occupy the substrate binding pockets in absence of any ligand.[22] The binding sites of these water molecules overlap with the binding sites of the inhibitors and affect crystallographic occupancy refinement. Thus, the refined occupation should always be considered in context with the electron density (Figure 6C–E). […] We also observed a third binding site of 2 and 3 outside of the substrate binding cleft. Here, two inhibitor molecules are stacked between two arginine residues of a crystal contact. This binding mode is specific for the crystal lattice and thus is not expected to occur in solution (Figure S5B, D).
The optimized soaking solutions contained either 1.0 M NaCl, 200 mM Mes/NaOH, at pH 5.5, 10% (w/v) PEG8000, and 20% (v/v) DMSO or 0.25 M NaCl, 200 mM Mes/NaOH, at pH 5.5, 20% (w/v) PEG8000, and 20% (v/v) DMSO and were supplemented with the specific inhibitors. Inhibitors 1 and 2 were soaked at 20 mM concentration in 1 M NaCl containing soaking solution for 0.5 h. Inhibitor 3 and 4 were soaked in 0.25 M NaCl containing soaking solution for 0.5 h at an inhibitor concentration of 100 mM and 20 mM, respectively. For the inhibitor titration experiments with 2, 40 mM, 4 mM, or 0.4 mM of the inhibitor was soaked for 0.5 h in 0.25 M NaCl-containing soaking solution. Soaked crystals were flash cooled in liquid N2. Diffraction data collection was performed at the synchrotron beamline BL14.2[33] (BESSY-II) of Helmholtz-Zentrum Berlin (HZB). The data were processed using XDS[34] with XDS-APP[35] (v2.0) and the CCP4 program suite[36] (v.7.1.001). COOT[37] (v.0.8.9.2) was used for model building. Refinement was performed in PHENIX[38] (v1.18.2) using the PDB ID 5JXG([22]) as an initial model. One specific Rfree-set (initially generated up to 1.0 Å, ref ([22])) was transferred to the data sets prior refinement start. Geometry restraints of the inhibitors were obtained from the PRODRG server[39] and from the GRADE Web server (http://grade.globalphasing.org). All guanylhydrazones were modeled in the E configuration, which is in agreement with previous studies with model compounds.[40] Electron density omit maps were calculated in PHENIX[38] (v1.18.2). PYMOL was used for molecular graphics (http://www.pymol.org) and structural alignments. In the case of inhibitor titration experiments with 2, the structure was first built and refined for a crystal soaked at 40 mM. This structure was used to calculate refinements with (for occupancy calculation) and without (for omit map calculation) an inhibitor in the model for three additional crystals independently soaked at 40 mM, 4 mM, and 0.4 mM (Table S2) obtaining R/Rfree-values of 17.3/19.0, 17.5/19.1, and 17.7/19.3, respectively. The occupancy refinement yielded consistent B-factors between the three differently soaked structures (Table S2). Structure factors and coordinates of the complexes of furin with inhibitors 1, 2, at 1 M NaCl; 2 at 0.25 M NaCl; and 3 and 4 have been deposited as PDB entries 7O1U, 7O1W, 7O1Y, 7O20, and 7O22, respectively.

The mark [4] stands for this setting: absence of inhibitor, 1:2 dilution series of the substrate.
[5] abbreviates: 0.4 mM inhibitor, 0.25 M NaCl soak.
Where [6] appears, read: 0.4 mM inhibitor, 0.25 M NaCl soak, * very weak electron density.
Where [7] appears, read: 4 mM inhibitor, 0.25 M NaCl soak.
Setting [8] is: 40 mM inhibitor, 0.25 M NaCl soak.

T2 sequence (P09958 108-574 limits assumed): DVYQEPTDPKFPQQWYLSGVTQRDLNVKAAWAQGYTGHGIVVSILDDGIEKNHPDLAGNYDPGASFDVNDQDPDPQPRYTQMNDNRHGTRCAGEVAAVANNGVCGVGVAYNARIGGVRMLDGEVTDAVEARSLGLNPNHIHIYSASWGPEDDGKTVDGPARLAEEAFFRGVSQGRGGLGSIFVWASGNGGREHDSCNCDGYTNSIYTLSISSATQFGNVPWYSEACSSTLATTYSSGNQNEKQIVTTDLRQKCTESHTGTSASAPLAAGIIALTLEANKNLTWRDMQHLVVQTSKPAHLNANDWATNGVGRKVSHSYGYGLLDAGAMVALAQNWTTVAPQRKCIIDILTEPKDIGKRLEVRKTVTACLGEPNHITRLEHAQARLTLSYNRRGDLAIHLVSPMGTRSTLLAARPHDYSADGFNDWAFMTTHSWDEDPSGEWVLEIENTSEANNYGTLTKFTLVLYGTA

Turning to `N=C(N)N/N=C/c1ccccc1OCc1ccc(Cl)cc1` [inhibitor 4], the inhibition constant Ki on furin (ref 24) is 11.8 µM; on furin (ref 26) it was 25.3 µM.
For `N=C(N)N/N=C/c1c(Cl)cccc1Cl` [guanabenz], the pKa in series [1] is 8.1.
Regarding `C/C(=N\NC(=N)N)c1cc(N)cc(/C(C)=N/NC(=N)N)c1` [inhibitor 1], the “potency loss / increase of the Ki for PC7 compared with furin” value on PC7 was approximately 7 fold. For the same compound, the Ki on PC7 (pH 7.0, 37 °C) stood at 22.4 ± 1.9 µM; at human furin [2], 3.3 ± 0.1 µM; at PC5/6, 3.6 ± 0.2 µM.
As for “pyr-ERTKR-7-amino-4-methylcoumarin [reference compound]”, the Km at PC7 (absence of inhibitor, 1:2 dilution series of the substrate, pH 7.0, 37 °C) amounted to 19.3 ± 0.8 µM; on human furin [2] (setting [4]) it was 4.7 ± 0.4 µM; at PC5/6 (setting [4]), 2.5 ± 0.2 µM.
Consider `C/C(=N\NC(=N)N)c1ccccc1` [inhibitor 3], for which the Ki on furin (ref 26) is 273 µM.
Consider `N=C(N)N/N=C/c1ccc(/C=N/NC(=N)N)cc1` [inhibitor 2], for which, at human furin [3] (setting [5]), the “occupancy at S1 pocket” value turned out to be 75%. Further, the “refined occupancy, molecule 1, S1 pocket” value was determined as 0.75 on human furin [3] (setting [5]), 0.87 on human furin [3] (setting [7]) and 0.94 on human furin [3] (setting [8]). In addition, the “refined occupancy, molecule 2, S4 pocket” value on human furin [3] (setting [6]) is given as 0.39; at human furin [3] (setting [7]), 0.63; on human furin [3] (setting [8]), 0.82. The “refined occupancy, molecule 3, crystal contact site” value is 0.35 on human furin [3] (setting [6]); 0.38 on human furin [3] (4 mM inhibitor, 0.25 M NaCl soak, * very weak electron density); 0.66 at human furin [3] (setting [8]). In addition, the “occupancy at S4 pocket” value at human furin [3] (setting [7]) is listed as 63%; on human furin [3] (setting [8]), 82%. Moreover, the “apparent dissociation constant at the S4 binding site” value on human furin [3] (estimated from inhibitor titration of crystals, 0.25 M NaCl) is on record as “low millimolar range”. In addition, on PC7, the “potency loss / increase of the Ki for PC7 compared with furin” value is recorded as approximately 3 fold. For the same compound, the Ki on PC7 (pH 7.0, 37 °C) was 10.4 ± 0.7 µM; on human furin [2] it was 3.1 ± 0.2 µM; at PC5/6, 1.7 ± 0.2 µM.

The Ki is the dissociation constant of the complex between target and ligand, obtained from inhibition or displacement. What is called pKa is the negative logarithm of the acid dissociation constant. Usually Km stands for the concentration of substrate that gives half-maximal velocity.
